Measured values published in patent publication US12049450B2, “Pyridyloxy-carboxylate derivative and preparation method therefor, herbicidal composition, and use” (Qingdao Kingagroot Chemical Compound Co., Ltd., priority 2018, dated 2024).

How the values were obtained:
Assay in all cases: Post-emergence test experiment (greenhouse pot, spray at 2-3 leaf stage)
Assay type in all cases: in vivo
Conditions in all cases: 1000 g/ha; post-emergence spray at 2-3 leaf stage; assessed after 3 weeks; fresh weight inhibition rate
Monochoria vaginalis = tested on: Monochoria vaginalis
Procedure, shortened: (§1)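 Activity graded levels 0-5 by fresh-weight inhibition (level 5 above 85%, level 0 below 5%), assessed 3 weeks after treatment. Plants grown in greenhouse pots were sprayed post-emergence at 2-3 leaves using acetone/tween-80 solutions with methyl oleate synergist (1.5 L/ha).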

Echinochloa crusgalli = tested on: Echinochloa crusgalli
Procedure, shortened: as §1

Digitaria sanguinalis = tested on: Digitaria sanguinalis
Procedure, shortened: as §1

Abutilon theophrasti = tested on: Abutilon theophrasti
Procedure, shortened: as §1

Galium spurium = tested on: Galium spurium
Procedure, shortened: as §1

Row | SMILES | Activity level (growth inhibition rate) Monochoria Vaginalis (Monochoria vaginalis) | Activity level (growth inhibition rate) Echinochloa crusgalli (Echinochloa crusgalli) | Activity level (growth inhibition rate) Digitaria sanguinalis (Digitaria sanguinalis) | Activity level (growth inhibition rate) Abutilon theophrasti (Abutilon theophrasti) | Activity level (growth inhibition rate) Galium spurium (Galium spurium)
1 | CCCc1c(F)nc(OC(C)C(=O)SCc2ccccc2)c(C2CC2)c1N (stereo not shown) [Compound 14] | 5 (Level 5: the growth inhibition rate is greater than 85%) | 5 (Level 5: the growth inhibition rate is greater than 85%) | 5 (Level 5: the growth inhibition rate is greater than 85%) | 5 (Level 5: the growth inhibition rate is greater than 85%) | 5 (Level 5: the growth inhibition rate is greater than 85%)
2 | CC(Oc1nc(F)c(C(F)(F)F)c(N)c1Cl)C(=O)OCc1ccccc1 (stereo not shown) [Compound 15] | 5 (Level 5: the growth inhibition rate is greater than 85%) | 5 (Level 5: the growth inhibition rate is greater than 85%) | 5 (Level 5: the growth inhibition rate is greater than 85%) | 5 (Level 5: the growth inhibition rate is greater than 85%) | 5 (Level 5: the growth inhibition rate is greater than 85%)
3 | CC(Oc1ncc(Cl)c(N)c1C(F)(F)F)C(=O)OCc1ccccc1 (stereo not shown) [Compound 16] | 5 (Level 5: the growth inhibition rate is greater than 85%) | 5 (Level 5: the growth inhibition rate is greater than 85%) | 5 (Level 5: the growth inhibition rate is greater than 85%) | 5 (Level 5: the growth inhibition rate is greater than 85%) | 5 (Level 5: the growth inhibition rate is greater than 85%)
4 | CC(Oc1nc(I)c(Cl)c(N)c1Cl)C(=O)SCc1ccccc1 (stereo not shown) [Compound 17] | 5 (Level 5: the growth inhibition rate is greater than 85%) | 5 (Level 5: the growth inhibition rate is greater than 85%) | 5 (Level 5: the growth inhibition rate is greater than 85%) | 5 (Level 5: the growth inhibition rate is greater than 85%) | 5 (Level 5: the growth inhibition rate is greater than 85%)
5 | CCCc1c(OC(C)C(=O)OCc2ccccc2)nc(Br)c(Cl)c1N (stereo not shown) [Compound 18] | 5 (Level 5: the growth inhibition rate is greater than 85%) | 5 (Level 5: the growth inhibition rate is greater than 85%) | 5 (Level 5: the growth inhibition rate is greater than 85%) | 5 (Level 5: the growth inhibition rate is greater than 85%) | 5 (Level 5: the growth inhibition rate is greater than 85%)
6 | Cc1nc(OC(C)C(=O)OCc2ccccc2)c(C)c(N)c1C (stereo not shown) [Compound 19] | 5 (Level 5: the growth inhibition rate is greater than 85%) | 5 (Level 5: the growth inhibition rate is greater than 85%) | 5 (Level 5: the growth inhibition rate is greater than 85%) | 5 (Level 5: the growth inhibition rate is greater than 85%) | 5 (Level 5: the growth inhibition rate is greater than 85%)
7 | Cc1c(OC(C)C(=O)OCc2ccccc2)ncc(Cl)c1N (stereo not shown) [Compound 21] | 5 (Level 5: the growth inhibition rate is greater than 85%) | 5 (Level 5: the growth inhibition rate is greater than 85%) | 5 (Level 5: the growth inhibition rate is greater than 85%) | 5 (Level 5: the growth inhibition rate is greater than 85%) | 5 (Level 5: the growth inhibition rate is greater than 85%)
8 | CC(Oc1nc(F)c(Cl)c(N)c1C1CC1)C(=O)OCc1ccccc1 (stereo not shown) [Compound 22] | 5 (Level 5: the growth inhibition rate is greater than 85%) | 5 (Level 5: the growth inhibition rate is greater than 85%) | 5 (Level 5: the growth inhibition rate is greater than 85%) | 5 (Level 5: the growth inhibition rate is greater than 85%) | 5 (Level 5: the growth inhibition rate is greater than 85%)
9 | CC(Oc1ncc(Cl)c(N)c1Cl)C(=O)SCc1ccccc1 (stereo not shown) [Compound 23] | 5 (Level 5: the growth inhibition rate is greater than 85%) | 5 (Level 5: the growth inhibition rate is greater than 85%) | 5 (Level 5: the growth inhibition rate is greater than 85%) | 5 (Level 5: the growth inhibition rate is greater than 85%) | 5 (Level 5: the growth inhibition rate is greater than 85%)
10 | CC(Oc1nc(Cl)c(Cl)c(N)c1Cl)C(=O)SCc1ccccc1 (stereo not shown) [Compound 24] | 5 (Level 5: the growth inhibition rate is greater than 85%) | 5 (Level 5: the growth inhibition rate is greater than 85%) | 5 (Level 5: the growth inhibition rate is greater than 85%) | 5 (Level 5: the growth inhibition rate is greater than 85%) | 5 (Level 5: the growth inhibition rate is greater than 85%)
11 | CC(Oc1nc(F)c(Cl)c(N)c1Cl)C(=O)OCC1CCCO1 (stereo not shown) [Compound 68] | 5 (Level 5: the growth inhibition rate is greater than 85%) | 5 (Level 5: the growth inhibition rate is greater than 85%) | 5 (Level 5: the growth inhibition rate is greater than 85%) | 5 (Level 5: the growth inhibition rate is greater than 85%) | 5 (Level 5: the growth inhibition rate is greater than 85%)
